# Reference: patent publication US10036052B2, “Method for producing biogenic substances” (BRANDENBURGISCHE TECHNISCHE UNIVERSITÄT COTTBUS-SENFTENBERG, priority 2013, dated 2018)
# System: HepaFH3 (proliferation-competent liver cells)
# Conditions: human, 100 μM
# Experimental: HepG2 cells (ATCC HB-8065) are cultivated in the medium DMEM PAA (Pasching, Austria), to which is added 10% FCS Gold, 2 mM L-glutamine, 100 U/mL penicillin, and 0.1 mg/mL streptomycin. Primary human hepatocytes (pHHs) are commercially obtained from, e.g., TebuBio (Le Perray-en-Yvelines, France) or Promocell (Heidelberg, Germany). The cells are seeded onto 50 μg/mL collagen type I (rat tail, BD Biosciences, San Jose, USA) coated cell culture plates and cultivated at 37° C. under 5% CO2 in hepatocyte growth medium (Promocell GmbH, Heidelberg, Germany) or equivalent cell culture media of other manufacturers known to the person skilled in the art. These pHHs can be used for metabolite production immediately or after production of proliferation-competent liver cells. To accomplish this, proliferation genes are transduced into the cells using a lentiviral vector. This technique is described in WO2009/030217A2 (Braspenning et al. (2007)). […] The proliferating hepatocyte clones (cell lines) are characterized with respect to their liver cell markers. […] For definition of sequences to generate primers, the person skilled in the art can use databases such as the NCBI GenBank® (http://www.ncbi.nlm.nih.gov/genbank) or the European Nucleotide Archive (http://www.ebi.ac.uk/ena/). For phase I, the most relevant enzymes are those of the cytochrome P450 (CYP) family. […]
smiles,measurement,value
O=C(O)Cc1ccccc1Nc1c(Cl)cccc1Cl [Diclofenac],Metabolite 4′-OH-diclofenac formed,7.13 ± 2.22 pmol/(min*10^6 cells)
